Assay results published in patent US20100056636A1, “N-Substituted-P-Menthane-3-Carboxamide and Uses Thereof” (priority 2006, published 2010).

Tests used:
small group of panelists = test: Panel tasting of aqueous solutions: cooling intensity matched to a solution of menthol at 2 ppm; type: in vivo, human; conditions: tasted
[1] = system: panel of experienced flavourists; test: Hard boiled sweets containing cold receptor stimulant, evaluated by a panel of experienced flavourists; type: in vivo, human; conditions: for strength of products A, B and C relative to each other: hard boiled sweets: A 50 ppm WS-3, B 5 ppm example 1, C 2.5 ppm example 2
Method: The sweets were prepared according to the following procedure. Sugar, water and glucose syrup are mixed and boiled till 146° C. The mix is cooled to 120° C., the cold receptor stimulant is added and carefully mixed in. The mix is poured on a cooling table and folded in and molded on a roller.
The sweets prepared were evaluated by a panel of experienced flavourists.

panel of flavourists = test: Comparative sensorial evaluation: aqueous solutions tasted by a panel of flavourists; type: in vivo, human
Method: Four aqueous solutions were prepared: A. […] 20 ppm WS-3 dissolved in solution A; and D. 2 ppm WS-3 dissolved in solution A. These solutions were tasted and evaluated by a panel of flavourists. […]

[2] = cited from earlier work

With CC1CCC(C(C)C)C(C(=O)NCCc2ccccc2)C1 (stereo not shown) [Example 2, 2-isopropyl-5-methyl-cyclohexanecarboxylic acid phenylethyl-amide] as the molecule, how does the “Concentration with cooling intensity similar to or slightly higher than that of a solution of menthol at 2 ppm” value (from here on “Concentration”) (small group of panelists) read?
Its value is 0.2 ppm.

What about the “sensory description of hard boiled sweet” value ([1]; Product C: 2.5 ppm product prepared in example 2) of the same molecule?
The value was ““slow release cooling”, “giving a cold effect in the whole mouth”, “tingling pain sensation enhancing the cooling effect and “very longlasting””.

What about the “strength of products A, B and C relative to each other” value [1] of the same molecule?
Its value is “comparable”.

And the “sensory description of solution” value (panel of flavourists; Example 4, solution B: 1 ppm product of example 2 dissolved in 20 ppm menthol aqueous solution)?
Its value is ““cold perception with a pain sensation”, “aggressive, long-lasting cooling”, “almost noxious cold”, “slightly tingling””.

And the “strength of solution B relative to solution D” value (panel of flavourists; Example 4: 1 ppm product of example 2 versus 2 ppm WS-3, both in 20 ppm menthol solution)?
The value was “much stronger”.

What about the “strength of solution B relative to solution C” value (panel of flavourists; Example 4: 1 ppm product of example 2 versus 20 ppm WS-3, both in 20 ppm menthol solution) of the same molecule?
Its value is “comparable strength”.

With “Ethyl 3-(p-menthane-3-carboxamido)acetate [(1R,3R,4S)-WS-5]” as the molecule, how does the “perceived cooling relative to WS-3” value ([2]; reported in US Patent Application No. 20050222256) read?
Its value is 2.5-3.0 times.

Which “Concentration” value (small group of panelists) does the source give for CC1CCC(C(C)C)C(C(=O)NCC(O)c2ccccc2)C1 (stereo not shown) [Example 1, 2-isopropyl-5-methyl-cyclohexanecarboxylic acid (2-hydroxy-2-phenylethyl)-amide] here?
Its value is 0.005 ppm.

And the “location of effect and aftertaste” value ([1]; Product B: 5 ppm product prepared in example 1)?
Its value is “in the whole mouth and has a tingling-cool aftertaste”.

And the “sensory description of hard boiled sweet” value ([1]; Product B: 5 ppm product prepared in example 1, A = 50 ppm WS-3)?
The value was ““giving a cold sensation which is not irritating” and “much more longlasting than A””.

What about the “strength of products A, B and C relative to each other” value [1] of the same molecule?
The value was “comparable”.

And the “sensory description of solution” value (panel of flavourists; Example 3, solution B: 2 ppm product of example 1 dissolved in 20 ppm menthol aqueous solution)?
The value was ““high initial cooling burst”, “long-lasting cooling”, “cold perception in whole mouth”, “some hotness””.

And the “strength of solution B relative to solution D” value (panel of flavourists; Example 3: 2 ppm product of example 1 versus 2 ppm WS-3, both in 20 ppm menthol solution)?
The value was “much stronger”.

What about the “strength of solution B relative to solution C” value (panel of flavourists; Example 3: 2 ppm product of example 1 versus 20 ppm WS-3, both in 20 ppm menthol solution) of the same molecule?
The value was “comparable strength”.

With CC1CCC(C(C)C)C(O)C1 (stereo not shown) [menthol, reference compound] as the molecule, how does the “Concentration” value (small group of panelists) read?
The value was 2.0 ppm.

And the “sensory description of solution” value (panel of flavourists; solution A: 20 ppm menthol in water)?
Its value is ““cooling””.

For CCNC(=O)C1CC(C)CCC1C(C)C (stereo not shown) [WS-3, N-Ethyl-p-menthane-3-carboxamide, reference compound], which “Concentration” value (small group of panelists) is on record?
The value was 1.5 ppm.

What about the “sensory description of hard boiled sweet” value ([1]; Product A (control): 50 ppm WS-3) of the same molecule?
Its value is ““giving coolness and a cold perception” and “having an immediate cooling effect” and “not longlasting””.

What about the “feeling in the throat” value ([1]; Product A: hard boiled sweet, dosage of 50 ppm WS-3) of the same molecule?
Its value is “irritating feeling in the throat”.

What about the “strength of products A, B and C relative to each other” value [1] of the same molecule?
The value was “comparable”.

What about the “sensory description of solution, compared with solution B” value (panel of flavourists; Example 3, solution C: 20 ppm WS-3 in 20 ppm menthol solution, B = 2 ppm product of example 1 in 20 ppm menthol) of the same molecule?
The value was ““more neutral cold perception than B”, “less aggressive cooling than B”, “less long-lasting cooling than B””.

And the “sensory description of solution, compared with solution B” value (panel of flavourists; Example 3, solution D: 2 ppm WS-3 in 20 ppm menthol solution, B = 2 ppm product of example 1 in 20 ppm menthol)?
Its value is ““more neutral cold perception than B”, “less aggressive cooling than B”, “less long-lasting cooling than B””.

What about the “sensory description of solution, compared with solution B” value (panel of flavourists; Example 4, solution C: 20 ppm WS-3 in 20 ppm menthol solution, B = 1 ppm product of example 2 in 20 ppm menthol) of the same molecule?
The value was ““more neutral cold perception than B”, “less aggressive cooling than B”, “less long-lasting cooling than B””.

And the “sensory description of solution, compared with solution B” value (panel of flavourists; Example 4, solution D: 2 ppm WS-3 in 20 ppm menthol solution, B = 1 ppm product of example 2 in 20 ppm menthol)?
The value was ““more neutral cold perception than B”, “less aggressive cooling than B”, “less long-lasting cooling than B””.

With CC1CCC(C(C)C)C(C(=O)N[C@H]2C[C@H]2c2ccccc2)C1 (stereo partly drawn) [Example 6, 2-isopropyl-5-methyl-N-((1S,2S)-2-phenylcyclopropyl)-cyclohexanecarboxamide] as the molecule, how does the “Concentration” value (small group of panelists) read?
The value was 0.1 ppm.

For CCOc1ccccc1CCNC(=O)C1CC(C)CCC1C(C)C (stereo not shown) [Example 5, N-(2-ethoxyphenethyl)-2-isopropyl-5-methylcyclohexane-carboxamide], which “Concentration” value (small group of panelists) is on record?
Its value is 0.002 ppm.

With “N-(3,4-dimethylphenethyl)-2-isopropyl-5-ethylcyclo-hexanecarboxamide [Example 7]” as the molecule, how does the “Concentration” value (small group of panelists) read?
Its value is 0.002 ppm.

With “Ethyl 3-(p-menthane-3-carboxamido)acetate [WS-5]” as the molecule, how does the “coolness relative to WS-3” value ([2]; known) read?
The value was “significantly cooler than WS-3”.
